Results published in patent US20140088027A1, “PHARMACEUTICAL COMPOSITION COMPRISING AN SGLT2 INHIBITOR AND A PPAR- GAMMA AGONIST AND USES THEREOF” (BOEHRINGER INGELHEIM INTERNATIONAL GMBH, priority 2010, published 2014).

Tests used:
[1] = Body weight in cafeteria-diet obese female Wistar rats; assay type: in vivo, rat; conditions: obese female Wistar rats on cafeteria diet, 28 day treatment
Protocol: (§1) An animal model of obesity was used to study the effect of Cpd. A, Pioglitazone or the combination of Cpd. A with Pioglitazone on body weight and total body fat content. For this, female Wistar rats were made obese by exposure to a simplified cafeteria diet containing high fat chow, chocolate and ground peanuts for approximately 19 weeks. Following the induction of obesity, rats were given vehicle (0.5% aqueous hydroxyethylcellulose) for 7 days and were then dosed orally once-daily with either vehicle, 10 mg/kg Cpd. A, 10 mg/kg Pioglitazone, or the combination of Cpd. A and Pioglitazone for 29 days. For the duration of the study rats were maintained on cafeteria diet.
In FIG. 1, results are mean body weights (adjusted for differences between the body weights of the different treatment groups at baseline (Day 1))±SEM (calculated from the residuals of the statistical model), n=10) after 28 day once-daily oral treatment with the glucopyranosyl-substituted benzene derivative (Cpd. A), Pioglitazone or the combination of both Cpd. A and Pioglitazone at the indicated doses.
Body weight data were analyzed by unpaired t-test. […] Combination of Cpd.

[2] = Plasma insulin in cafeteria-diet obese female Wistar rats; assay type: in vivo, rat; conditions: fed, 10 mg/kg po once daily each, after 28/29 days
Protocol: as §1
After 28 days of treatment, blood samples were collected from the tail vein (from fed animals) for analysis of insulin. Plasma insulin values were determined by using a Millipore Luminex RENDO 85K kit.
In FIG. 2, results are mean plasma insulin levels±SEM after 29 days of once-daily oral treatment with the glucopyranosyl-substituted benzene derivative (Cpd. A), Pioglitazone or the combination of both Cpd. A and Pioglitazone at the indicated doses. Plasma insulin values were analyzed by unpaired t-test. P values versus vehicle control are indicated by symbols above the bars (*, p<0.05; **, p<0.01; ***, p<0.001). […] Combination of Cpd.

[3] = Body composition (FoodScan NIR) in cafeteria-diet obese female Wistar rats; assay type: in vivo, rat; conditions: 10 mg/kg po once daily, carcass analysis at Day 31
Protocol: as §1
At the end of the study on Day 31 (24 hours after the last treatment on Day 30) all rats were terminated, the body exsanguinated and the following tissues removed: the caudate liver lobe, the pancreas, the kidneys. Body composition (body fat, protein and water) was determined using the FoodScan NIR (near infra-red) meat analyser (Foss UK). This machine has AOAC (Association of Official Analytical Chemists) approval as reference method for the analysis of moisture, fat and protein in meat. The carcasses were milled under liquid nitrogen and a portion of the milled carcass was analysed in the FoodScan Analyser.
Results are the percentage reduction in each parameter when compared to control and presented along with the corresponding percentage reduction in carcass weight compared to the vehicle-treated control group. Body composition (body fat, protein and water) was determined using the FoodScan NIR (near infra-red) meat analyser (Foss UK).

[4] = system: Zucker diabetic fatty rats (ZDF/Crl-Lepr^fa); assay: Blood glucose time course in male Zucker diabetic fatty rats; assay type: in vivo, rat; conditions: freely fed, 2 h after dosing, two weeks once daily po, Cpd. A 1 mg/kg, pioglitazone 10 mg/kg
Source text: The SGLT2 inhibitor is the glucopyranosyl-substituted benzene derivative described as compound (I.9) hereinabove and referred to as “Cpd. A” in the following. The PPARγ agonist is pioglitazone. All experimental protocols concerning the use of laboratory animals were reviewed by a federal Ethics Committee and approved by governmental authorities. The time course of blood glucose was followed over a treatment period of 2 weeks in male Zucker diabetic fatty rats (ZDF/Crl-Lepr^fa) with an age of 10 weeks at the start of the study. A pre-dose blood sample was obtained by tail bleed (day 0) and blood glucose was measured with a glucometer. From day 1 to day 15, the animals (n=5/group) received once daily oral administrations of either vehicle alone (0.5% aqueous hydroxyethylcellulose) or this vehicle containing either Cpd. A or pioglitazone or the combination of the Cpd. A with pioglitazone. Blood glucose was measured in tail blood 2 h after dosing in freely fed animals. The data are presented as mean±S.E.M. Statistical comparison was conducted by repeated measures two-way ANOVA followed by Bonferroni post tests for group-wise comparisons. A p value <0.05 was considered to show a statistically significant difference.
Cpd. A is Cpd. A described as compound (I.9) hereinabove at a dose of 1 mg/kg. Pioglitazone was dosed at 10 mg/kg. Combination Cpd. […]

[5] = metformin on its own, in the diabetic; cited from earlier work

Row | SMILES | reduction of body weight compared to vehicle-treated control ([1]; 10 mg/kg po once daily) [%] | plasma insulin levels versus vehicle control [2] | Carcass weight (%), percentage reduction compared to vehicle-treated control [3] [%] | Fat (%), percentage reduction compared to control [3] [%] | Protein (%), percentage reduction compared to control [3] [%] | Water (%), percentage reduction compared to control [3] [%] | reduction of blood glucose [4] [%] | increase of body weight compared to vehicle-treated control animals ([1]; 10 mg/kg po once daily each) [%] | average improvement in the HbA1c value [5]
1 | OC[C@H]1O[C@@H](c2ccc(Cl)c(Cc3ccc(O[C@H]4CCOC4)cc3)c2)[C@H](O)[C@@H](O)[C@@H]1O [Cpd. A] | 3.1 | reduced the plasma insulin levels significantly | −3.5 | −4.5 | −1.5 | −0.3 | 37 | – | –
2 | CCc1ccc(CCOc2ccc(CC3SC(=O)NC3=O)cc2)nc1 (centres unmarked) [Pioglitazone, pioglitazone] | – | – | 6.2 | 15.4 | 1.1 | 3.6 | 48 | 6.8 | –
3 | CN(C)C(=N)N=C(N)N [metformin] | – | – | – | – | – | – | – | – | 1.0-1.5%
